Experimental data as given in article PMC9370283, “New Quinoxaline-Based Derivatives as PARP-1 Inhibitors: Design, Synthesis, Antiproliferative, and Computational Studies” (Molecules, 2022).
“And” between values parts separate entries of the source, which are not always exact repeats. Equal entries are not always repeated. Where two headings read alike, the source gives them in different places.

Assays:
[1] = target: T1, PARP-1 (Homo sapiens, UniProt P09874); assay: colorimetric 96-well PARP-1 assay kit (BPS Bioscience); format: biochemical; details: for IC50: read-out: IC50 (mean ± SEM) PARP-1
T1 construct: purchased BPS Bioscience 80580

[2] = tested on: MDA-MB-436; assay: in vitro cytotoxicity, MTT assay, MDA-MB-436; details: for IC50: read-out: IC50 (mean ± SEM) MDA-MB-436; for SI: MDA-MB-436, matches IC50 WI-38 / IC50 MDA-MB-436; for % viability MDA-MB-436: MTT lab report
[3] = tested on: WI-38; assay: cytotoxicity against normal cells, MTT assay, WI-38; format: cell-based; details: Homo sapiens, normal cell line, read-out: IC50 (mean ± SEM) WI-38
Method: It has been reported that the frequency and severity of the side effects on normal healthy cells at therapeutic levels are deemed to be critical factors that distinguish different anticancer drugs from each other. […]
to the wells designated as “Blank”. The amount of PARP-1 required for the assay was then calculated. The reaction was initiated by adding 20 µL of diluted PARP-1 en zy me to the wells designated “Positive Control” and “Test Inhibitor Control”. The strip wells were incubated at room temperature for 1 hou r. The strip wells were then wash ed three times with 200 µL of PBST buffer.
Then, 50 µL of 50 times diluted Streptavidin-HRP with blocking buffer was added to each well, and the strips were further incubated at room temperature for 30 min. After washing the wells three times with 200 µL of PBST buffer, HRP colorimetric substrate was added to each well, and the plate was incubated at room temperature until a blue color was developed in the positive control well. Then, the reaction was quenched with 100 µL per well of 2 M sulfuric acid. Carrier solvent (DMSO 5%, v/v) was used as a negative control. All compounds including Ol ap arib were t ested at 5 concentrations (100, 10, 1, 0.1, and 0.01 µM). The optical density (OD) of each well was measured spectrophotometrically at 450 nm with an ELISA microplate reader (ChroMate-4300, FL, USA). The IC50 values were calculated according to the equation for Boltzmann sigmoidal concentration-response curves using the nonlin ear regression fitting model (GraphPad Prism Version 8). All assays were performed in triplicate in 3 repeated experiments. The obtained data are presented as means standard error of the means from 3 independent repeats (n = 3).
4.3.In vitro anticancer screening
The cell lines were purchased from the American Type Culture collection as follows:
Breast Cancer cell lines (MDA-MB-436) and WI38. Cytotoxic activity screening was performed using MTT assay. Exponentially, cells were placed in 10^4 cells/ well for 24 h, and then add fresh med ium containing different concen trations of the tested sample. Serial two-fold dilutions of the tested sample were added using a multichannel pipette. Moreover, all cells were cultivated at 37 °C, with 5% CO2 and 95% humidity. Also, incubation of control cells occurred at 3 7 ° C . […] Rinse the wells using water until no stain. After that, add 30% g lacial acetic acid to all wells with shaking plates on a Microplate reader (TECAN, Inc.) to measure the absorbance, using a test wavelength of 490 nm. Besides, compare the treated samples with the control cell. The cytotoxicity was estimated by IC50 in (μg /mL), the concentration that inhibits 50% of the growth of the examined cell.

[4] = mutant BRCA1 breast cancer cells, MTT

T1 sequence (P09874 whole entry): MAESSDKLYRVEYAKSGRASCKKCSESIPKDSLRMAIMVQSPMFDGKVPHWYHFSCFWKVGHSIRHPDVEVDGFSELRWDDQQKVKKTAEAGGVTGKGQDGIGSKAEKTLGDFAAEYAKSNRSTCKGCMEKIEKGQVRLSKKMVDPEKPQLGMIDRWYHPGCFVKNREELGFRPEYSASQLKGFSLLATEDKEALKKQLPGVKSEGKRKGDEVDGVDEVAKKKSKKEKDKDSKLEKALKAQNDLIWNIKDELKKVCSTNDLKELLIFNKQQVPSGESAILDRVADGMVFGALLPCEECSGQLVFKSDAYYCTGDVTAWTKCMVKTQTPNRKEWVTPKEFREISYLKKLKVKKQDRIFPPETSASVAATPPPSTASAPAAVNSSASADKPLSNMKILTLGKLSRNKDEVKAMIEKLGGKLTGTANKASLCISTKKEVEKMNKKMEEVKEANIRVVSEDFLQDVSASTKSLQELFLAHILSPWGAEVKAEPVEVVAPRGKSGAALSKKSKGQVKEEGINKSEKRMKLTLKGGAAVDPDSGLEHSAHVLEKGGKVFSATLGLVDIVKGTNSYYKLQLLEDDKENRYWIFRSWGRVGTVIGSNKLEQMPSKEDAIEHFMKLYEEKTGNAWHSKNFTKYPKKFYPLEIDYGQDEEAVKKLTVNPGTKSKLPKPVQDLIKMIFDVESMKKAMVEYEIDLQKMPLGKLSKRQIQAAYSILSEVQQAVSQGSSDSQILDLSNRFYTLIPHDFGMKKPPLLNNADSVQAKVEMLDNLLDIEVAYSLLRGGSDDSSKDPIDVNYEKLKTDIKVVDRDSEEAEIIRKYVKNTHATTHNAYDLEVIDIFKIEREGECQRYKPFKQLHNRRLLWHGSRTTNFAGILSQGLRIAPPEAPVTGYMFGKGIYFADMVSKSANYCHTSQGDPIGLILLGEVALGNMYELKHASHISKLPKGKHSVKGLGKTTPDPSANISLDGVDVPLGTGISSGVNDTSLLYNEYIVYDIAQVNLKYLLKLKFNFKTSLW

**Q.** What does the source list for `O=C1CSC(=NNS(=O)(=O)c2ccc3[nH]c(=O)c(=O)[nH]c3c2)N1C(=O)c1ccccc1` [Compound 12b, N’-(3-benzoyl-4-oxothiazolidin-2-ylidene)-2,3-dioxo-1,2,3,4-tetrahydroquinoxaline-6-sulfonohydrazide]?
**A.** IC50 [1]: 40.5 ± 2.06 nM; melting point: 290 to 292 °C

**Q.** Which results are given for `COc1ccc(-n2c(C)c(C(C)=O)sc2=NNS(=O)(=O)c2ccc3[nH]c(=O)c(=O)[nH]c3c2)cc1` [Compound 11a, N’-(5-acetyl-3-(4-methoxyphenyl)-4-methylthiazol-2(3H)-ylidene)-2,3-dioxo-1,2,3,4-tetrahydroquinoxaline-6-sulfonohydrazide]?
**A.** IC50 [1]: 19.4 ± 0.99 nM; melting point: 185 to 187 °C

**Q.** With `O=C(c1cc(Cc2n[nH]c(=O)c3ccccc23)ccc1F)N1CCN(C(=O)C2CC2)CC1` [Olaparib, reference compound] as the molecule, how does the IC50 [2] read?
**A.** 8.9 µM and 8.63 µM

**Q.** What does the source list for `COc1ccc(-n2c(C)csc2=NNS(=O)(=O)c2ccc3[nH]c(=O)c(=O)[nH]c3c2)cc1` [Compound 10a, N′-(3-(4-methoxyphenyl)-4-methylthiazol-2(3H)-ylidene)-2,3-dioxo-1,2,3,4-tetrahydroquinoxaline-6-sulfonohydrazide]?
**A.** IC50 [1]: 21.6 ± 1.1 nM; melting point: 130 to 132 °C

**Q.** For `O=C1CCC(=O)N1NS(=O)(=O)c1ccc2[nH]c(=O)c(=O)[nH]c2c1` [Compound 7a, N-(2,5-dioxopyrrolidin-1-yl)-2,3-dioxo-1,2,3,4-tetrahydroquinoxaline-6-sulfonamide], which IC50 [1] is on record?
**A.** 57.1 ± 2.91 nM

**Q.** And the melting point?
**A.** 292 to 294 °C

**Q.** With `Cc1csc(=NNS(=O)(=O)c2ccc3[nH]c(=O)c(=O)[nH]c3c2)n1C(=O)c1ccccc1` [Compound 10b, N’-(3-benzoyl-4-methylthiazol-2(3H)-ylidene)-2,3-dioxo-1,2,3,4-tetrahydroquinoxaline-6-sulfonohydrazide] as the molecule, how does the IC50 [3] read?
**A.** 75.66 ± 0.51 µM

**Q.** And the SI [2]?
**A.** 7.86

**Q.** And the “% viability MDA-MB-436” value ([2]; log conc. 0.193 (1.6uM))?
**A.** 65.24%

**Q.** And the “% viability MDA-MB-436” value ([2]; log conc. 0.796 (6.3uM))?
**A.** 52.38%

**Q.** What about the “% viability MDA-MB-436” value ([2]; log conc. 1.398 (25uM)) of the same molecule?
**A.** 43.29%

**Q.** What about the “% viability MDA-MB-436” value ([2]; log conc. 2 (100uM)) of the same molecule?
**A.** 32.38%

**Q.** And the “% viability MDA-MB-436” value ([2]; log conc. -0.409 (0.4uM))?
**A.** 72.68%

**Q.** What about the IC50 [2, 4] of the same molecule?
**A.** 9.62 ± 0.56 µM

**Q.** And the IC50 [1]?
**A.** 6.35 ± 0.32 nM

**Q.** For `O=C1C=CC(=O)N1NS(=O)(=O)c1ccc2[nH]c(=O)c(=O)[nH]c2c1` [Compound 7b, N-(2,5-dioxo-2,5-dihydro-1H-pyrrol-1-yl)-2,3-dioxo-1,2,3,4-tetrahydroquinoxaline-6-sulfonamide], which IC50 [1] is on record?
**A.** 35.8 ± 1.8 nM

**Q.** And the melting point?
**A.** 295 to 297 °C

**Q.** Which results are given for `O=C1CC(=O)N(S(=O)(=O)c2ccc3[nH]c(=O)c(=O)[nH]c3c2)N1` [Compound 6, 6-((3,5-Dioxopyrazolidin-1-yl)sulfonyl)-1,4-dihydroquinoxaline-2,3-dione]?
**A.** fold less PARP-1 inhibitory activity than reference drug Olaparib ([1]; ratio of IC50 values): ~3 fold; IC50 [1]: 13.3 ± 0.68 nM; melting point: 270 to 272 °C

**Q.** With `COc1ccc(-n2c(=O)cc(O)n(NS(=O)(=O)c3ccc4[nH]c(=O)c(=O)[nH]c4c3)c2=S)cc1` [Compound 9a, N-(6-hydroxy-3-(4-methoxyphenyl)-4-oxo-2-thioxo-3,4-dihydropyrimidin-1(2H)-yl)-2,3-dioxo-1,2,3,4-tetrahydroquinoxaline-6-sulfonamide] as the molecule, how does the IC50 [1] read?
**A.** 57.4 ± 2.9 nM

**Q.** What about the melting point of the same molecule?
**A.** 205 to 207 °C

**Q.** Which results are given for `O=C(NC(=S)NNS(=O)(=O)c1ccc2[nH]c(=O)c(=O)[nH]c2c1)c1ccccc1` [Compound 8b, N-(2-((2,3-dioxo-1,2,3,4-tetrahydroquinoxalin-6-yl)sulfonyl)hydrazine-1-carbonothioyl)benzamide]?
**A.** fold less PARP-1 inhibitory activity than reference drug Olaparib ([1]; ratio of IC50 values): 2.5 fold; IC50 [1]: 11.1 ± 0.56 nM; melting point: 265 to 267 °C

**Q.** Which IC50 [1] does the source give for `O=C1c2ccccc2C(=O)N1NS(=O)(=O)c1ccc2[nH]c(=O)c(=O)[nH]c2c1` [Compound 7c, N-(1,3-dioxoisoindolin-2-yl)-2,3-dioxo-1,2,3,4-tetrahydroquinoxaline-6-sulfonamide] here?
**A.** 43.4 ± 0.1 nM

**Q.** What about the melting point of the same molecule?
**A.** 207 to 209 °C

**Q.** For `COc1ccc(NC(=S)NNS(=O)(=O)c2ccc3[nH]c(=O)c(=O)[nH]c3c2)cc1` [Compound 8a, 2-((2,3-Dioxo-1,2,3,4-tetrahydroquinoxalin-6-yl)sulfonyl)-N-(4-methoxyphenyl) Hydrazine-1-carbothioamide], which IC50 [3] is on record?
**A.** 70.46 ± 0.43 µM

**Q.** What about the SI [2] of the same molecule?
**A.** 6.58

**Q.** And the “% viability MDA-MB-436” value ([2]; log conc. 0.193 (1.6uM))?
**A.** 61.23%

**Q.** What about the “% viability MDA-MB-436” value ([2]; log conc. 0.796 (6.3uM)) of the same molecule?
**A.** 53.52%

**Q.** And the “% viability MDA-MB-436” value ([2]; log conc. 1.398 (25uM))?
**A.** 43.91%

**Q.** And the “% viability MDA-MB-436” value ([2]; log conc. 2 (100uM))?
**A.** 35.79%

**Q.** And the “% viability MDA-MB-436” value ([2]; log conc. -0.409 (0.4uM))?
**A.** 73.41%

**Q.** What about the IC50 [2, 4] of the same molecule?
**A.** 10.7 ± 0.63 µM

**Q.** What about the “fold higher PARP-1 inhibitory activity than Olaparib” value ([1]; ratio of IC50 values) of the same molecule?
**A.** ~2 fold

**Q.** What about the IC50 [1] of the same molecule?
**A.** 2.31 ± 0.3 nM

**Q.** Which IC50 [3] does the source give for `CC(=O)c1sc(=NNS(=O)(=O)c2ccc3[nH]c(=O)c(=O)[nH]c3c2)n(C(=O)c2ccccc2)c1C` [Compound 11b, N’-(5-acetyl-3-benzoyl-4-methylthiazol-2(3H)-ylidene)-2,3-dioxo-1,2,3,4-tetrahydro Quinoxaline-6-sulfonohydrazide] here?
**A.** 80.1 ± 0.82 µM

**Q.** And the SI [2]?
**A.** 6.96

**Q.** What about the “% viability MDA-MB-436” value ([2]; log conc. 0.193 (1.6uM)) of the same molecule?
**A.** 62.03%

**Q.** What about the “% viability MDA-MB-436” value ([2]; log conc. 0.796 (6.3uM)) of the same molecule?
**A.** 55.11%

**Q.** And the “% viability MDA-MB-436” value ([2]; log conc. 1.398 (25uM))?
**A.** 44.77%

**Q.** What about the “% viability MDA-MB-436” value ([2]; log conc. 2 (100uM)) of the same molecule?
**A.** 35.26%

**Q.** What about the “% viability MDA-MB-436” value ([2]; log conc. -0.409 (0.4uM)) of the same molecule?
**A.** 73.47%

**Q.** What about the IC50 [2, 4] of the same molecule?
**A.** 11.5 ± 0.67 µM

**Q.** And the IC50 [1]?
**A.** 8.25 ± 0.42 nM

**Q.** Which results are given for `COc1ccc(N2C(=O)CSC2=NNS(=O)(=O)c2ccc3[nH]c(=O)c(=O)[nH]c3c2)cc1` [Compound 12a, N’-(3-(4-methoxyphenyl)-4-oxothiazolidin-2-ylidene)-2,3-dioxo-1,2,3,4-tetrahydro quinoxaline-6-sulfonohydrazide]?
**A.** IC50 [1]: 36.1 ± 1.84 nM; melting point: 292 to 294 °C

**Q.** Which “fold less PARP-1 inhibitory activity than reference drug Olaparib” value ([1]; ratio of IC50 values) does the source give for `NNS(=O)(=O)c1ccc2[nH]c(=O)c(=O)[nH]c2c1` [Compound 3, 2,3-Dioxo-1,2,3,4-tetrahydroquinoxaline-6-sulfonohydrazide] here?
**A.** 3 fold

**Q.** And the IC50 [1]?
**A.** 12.9 ± 4.73 nM

**Q.** And the melting point?
**A.** 285 to 287 °C

**Q.** With `Cc1cc(O)n(S(=O)(=O)c2ccc3[nH]c(=O)c(=O)[nH]c3c2)n1` [Compound 4, 6-((5-Hydroxy-3-methyl-1H-pyrazol-1-yl)sulfonyl)-1,4-dihydroquinoxaline-2,3-dione] as the molecule, how does the “% viability MDA-MB-436” value ([2]; log conc. 0.193 (1.6uM)) read?
**A.** 69.76%

**Q.** What about the “% viability MDA-MB-436” value ([2]; log conc. 0.796 (6.3uM)) of the same molecule?
**A.** 60.12%

**Q.** And the “% viability MDA-MB-436” value ([2]; log conc. 1.398 (25uM))?
**A.** 51.83%

**Q.** What about the “% viability MDA-MB-436” value ([2]; log conc. 2 (100uM)) of the same molecule?
**A.** 42.01%

**Q.** What about the “% viability MDA-MB-436” value ([2]; log conc. -0.409 (0.4uM)) of the same molecule?
**A.** 81.83%

**Q.** And the IC50 [2, 4]?
**A.** 30.3 ± 1.78 µM

**Q.** And the “fold less PARP-1 inhibitory activity than reference drug Olaparib” value ([1]; ratio of IC50 values)?
**A.** ~2 fold

**Q.** What about the IC50 [1] of the same molecule?
**A.** 8.73 ± 0.44 nM

**Q.** Which results are given for `O=C(c1ccccc1)n1c(=O)cc(O)n(NS(=O)(=O)c2ccc3[nH]c(=O)c(=O)[nH]c3c2)c1=S` [Compound 9b, N-(3-benzoyl-6-hydroxy-4-oxo-2-thioxo-3,4-dihydropyrimidin-1(2H)-yl)-2,3-dioxo-1,2,3,4-tetrahydroquinoxaline-6-sulfonamide]?
**A.** IC50 [1]: 35.7 ± 1.82 nM; melting point: 270 to 272 °C
